The experiment deals with BRD4 (Homo sapiens (Human), UniProt O60885). Conditions: read-out: BRD4 IC50 (μM gmean).
Broadly, the IC50 is the concentration needed to halve the response being measured. `COC(=O)N1c2ccc3c(nc(Cc4ccc(N5CCCC5=O)cc4)n3[C@H]3CC[C@H](C(=O)O)CC3)c2CC[C@@H]1C` [Example 664]: the IC50 fell in the range of 1 to 1000 µM.

Consider `COC(=O)N1c2ccc3c(nc(Cc4cncc(C5CC5)n4)n3[C@@H]3CCC[C@@H](C(=O)O)C3)c2CC[C@@H]1C` [Example 665], for which the IC50 fell in the range of 1 to 1000 µM.

As to `COC(=O)N1c2ccc3c(nc(C(CO)c4ccccc4)n3C3CCCC(C(=O)O)C3)c2CC[C@@H]1C` (stereo partly shown) [Example 668], the IC50 was in the range of 1 to 1000 µM.

Consider `COC(=O)N1c2ccc3c(nc(Cc4cnc(Cl)cn4)n3[C@@H]3CCC[C@@H](C(=O)O)C3)c2CC[C@@H]1C` [Example 669], for which the IC50 is 1 to 1000 µM.

Take `COC(=O)N1c2ccc3c(nc(C(C)Cc4cnn(C)c4)n3C3CCC(C(=O)O)CC3)c2CC[C@@H]1C` (stereo partly shown) [Example 671]: the IC50 was in the range of 1 to 1000 µM.

As for `COC(=O)N1c2ccc3c(nc(C(c4ccc(OC)c(F)c4)C(C)C)n3C3CCC(C(=O)O)CC3)c2CC[C@@H]1C` (stereo partly shown) [Example 673], the IC50 was 1 to 1000 µM.

For `COC(=O)N1c2ccc3c(nc(Cc4ccc(F)cc4)n3[C@@H]3CCC[C@@H](C(=O)O)C3)c2CC[C@@H]1C` [Example 675], the IC50 was in the range of 1 to 1000 µM.

For the molecule `COC(=O)N1c2ccc3c(nc(CC(C(=O)O)c4cccc(C(F)F)c4)n3C3CCCOC3)c2CC[C@@H]1C` (stereo partly shown) [Example 676], the IC50 lay within 1 to 1000 µM.

Turning to `COC(=O)N1c2ccc3c(nc(CC(C(=O)O)c4ccccc4)n3-c3ccc(C#N)cc3)c2CC[C@@H]1C` (stereo partly shown) [Example 680], the IC50 was in the range of 1 to 1000 µM.

On to `COC(=O)N1c2ccc3c(nc(N(C)c4ccc(C#N)cc4)n3[C@@H]3CCC[C@@H](C(=O)O)C3)c2CC[C@@H]1C` [Example 681], for which the IC50 lay within 1 to 1000 µM.

Turning to `COC(=O)N1c2ccc3c(nc(Cc4cc(C(F)(F)F)cnn4)n3[C@@H]3CCC[C@@H](C(=O)O)C3)c2CC[C@@H]1C` [Example 687], the IC50 lay within 1 to 1000 µM.

As for `COC(=O)N1c2ccc3c(nc(CN4CCC5(CC5)CC4=O)n3[C@@H]3CCC[C@@H](C(=O)O)C3)c2CC[C@@H]1C` [Example 688], the IC50 fell in the range of 1 to 1000 µM.

Take `COC(=O)N1c2ccc3c(nc(N(C)c4ccc(Cl)cc4)n3[C@H]3CC[C@H](C(=O)O)CC3)c2CC[C@@H]1C` [Example 691]: the IC50 lay within 1 to 1000 µM.

On to `COC(=O)N1c2ccc3c(nc(COC4CCCCC4)n3[C@H]3CC[C@H](C(=O)O)CC3)c2CC[C@@H]1C` [Example 692], for which the IC50 is 1 to 1000 µM.

Turning to `COC(=O)N1c2ccc3c(nc(Cc4cccc(OC5CC5)n4)n3[C@@H]3CCC[C@@H](C(=O)O)C3)c2CC[C@@H]1C` [Example 695], the IC50 is 1 to 1000 µM.

Turning to `COC(=O)N1c2ccc3c(nc(CN4CCC(C)(C)CC4=O)n3[C@@H]3CCC[C@@H](C(=O)O)C3)c2CC[C@@H]1C` [Example 696], the IC50 is 1 to 1000 µM.

On to `COC(=O)N1c2ccc3c(nc(CC(C(=O)O)c4ccccc4)n3-c3cccc(C#N)c3)c2CC[C@@H]1C` (stereo partly shown) [Example 698], for which the IC50 lay in the range of 1 to 1000 µM.

As to `COC(=O)N1c2ccc3c(nc(C(O)C4CCC(F)(F)CC4)n3C3CCCC(C(=O)O)C3)c2CC[C@@H]1C` (stereo partly shown) [Example 699], the IC50 was 1 to 1000 µM.

For `COC(=O)N1c2ccc3c(nc(CC(C(=O)O)c4ccc(C)cc4)n3C3COCC(F)(F)C3)c2CC[C@@H]1C` (stereo partly shown) [Example 700], the IC50 fell in the range of 1 to 1000 µM.

`COC(=O)N1c2ccc3c(nc(COC4CCCCC4)n3[C@@H]3CCC[C@@H](C(=O)O)C3)c2CC[C@@H]1C` [Example 702]: the IC50 was 1 to 1000 µM.

Turning to `COC(=O)N1c2ccc3c(nc(C4(c5cncc(C)n5)CC4)n3[C@@H]3CCC[C@@H](C(=O)O)C3)c2CC[C@@H]1C` [Example 704], the IC50 was 1 to 1000 µM.

Consider `COC(=O)N1c2ccc3c(nc(Cc4ccccc4C#N)n3[C@H]3CC[C@H](C(=O)O)CC3)c2CC[C@@H]1C` [Example 706], for which the IC50 lay within 1 to 1000 µM.

On to `COC(=O)N1c2ccc3c(nc(Cc4cccc(C#N)c4)n3[C@H]3CC[C@H](C(=O)O)CC3)c2CC[C@@H]1C` [Example 707], for which the IC50 lay in the range of 1 to 1000 µM.

With `COC(=O)N1c2ccc3c(nc(C(O)c4ccccc4)n3C3CCC(C(=O)O)CC3)c2CC[C@@H]1C` (stereo partly shown) [Example 708], the IC50 fell in the range of 1 to 1000 µM.

Consider `COC(=O)N1c2ccc3c(nc(C(C)Cn4cc(Cl)cn4)n3C3CCS(=O)(=O)C3)c2CC[C@@H]1C` (stereo partly shown) [Example 709], for which the IC50 fell in the range of 1 to 1000 µM.

Turning to `COC(=O)N1c2ccc3c(nc(C4(Cn5cccn5)CC4)n3[C@H]3CC[C@H](C(=O)O)CC3)c2CC[C@@H]1C` [Example 710], the IC50 lay within 1 to 1000 µM.

As to `COC(=O)N1c2ccc3c(nc(COC4CCCC4)n3[C@@H]3CCC[C@@H](C(=O)O)C3)c2CC[C@@H]1C` [Example 711], the IC50 fell in the range of 1 to 1000 µM.

Take `COC(=O)N1c2ccc3c(nc(C(O)CC4CCC(F)(F)CC4)n3C3CCCC(C(=O)O)C3)c2CC[C@@H]1C` (stereo partly shown) [Example 712]: the IC50 is 1 to 1000 µM.

With `COC(=O)N1c2ccc3c(nc(Cn4cc(C(C)C)cn4)n3[C@H]3CC[C@H](C(=O)O)CC3)c2CC[C@@H]1C` [Example 714], the IC50 fell in the range of 1 to 1000 µM.

For `COC(=O)N1c2ccc3c(nc(C(NC(C)=O)c4ccccc4)n3C3CCC(C(=O)O)CC3)c2CC[C@@H]1C` (stereo partly shown) [Example 717], the IC50 is 1 to 1000 µM.

`COC(=O)N1c2ccc3c(nc(Cc4cccc(C)c4)n3[C@@H]3CCC[C@@H](C(=O)O)C3)c2CC[C@@H]1C` [Example 718]: the IC50 was in the range of 1 to 1000 µM.

Take `COC(=O)N1c2ccc3c(nc(C(C)Cc4ccc(F)c(F)c4)n3C3CCCC(C(=O)O)C3)c2CC[C@@H]1C` (stereo partly shown) [Example 720]: the IC50 lay within 1 to 1000 µM.

Turning to `COC(=O)N1c2ccc3c(nc(C[C@H]4CC[C@H](OC)CC4)n3[C@@H]3CCC[C@@H](C(=O)O)C3)c2CC[C@@H]1C` [Example 723], the IC50 was in the range of 1 to 1000 µM.

With `COC(=O)N1c2ccc3c(nc(C(C)OC4CCOCC4)n3C3CCC(C(=O)O)CC3)c2CC[C@@H]1C` (stereo partly shown) [Example 724], the IC50 was 1 to 1000 µM.

On to `COC(=O)N1c2ccc3c(nc(C(c4ccccc4)[S+](C)[O-])n3C3CCC(C(=O)O)CC3)c2CC[C@@H]1C` (stereo partly shown) [Example 725], for which the IC50 is 1 to 1000 µM.

Regarding `COC(=O)N1c2ccc3c(nc(CC4CCC(C#N)CC4)n3C3CCCC(C(=O)O)C3)c2CC[C@@H]1C` (stereo partly shown) [Example 726], the IC50 is 1 to 1000 µM.

As to `COC(=O)N1c2ccc3c(nc(CC(C(=O)O)c4cccc(F)c4)n3C3CCCOC3)c2CC[C@@H]1C` (stereo partly shown) [Example 728], the IC50 fell in the range of 1 to 1000 µM.

With `COC(=O)N1c2ccc3c(nc(CC4CCC(OC)CC4)n3C3CCC(C(=O)O)CC3)c2CC[C@@H]1C` (stereo partly shown) [Example 729], the IC50 lay within 1 to 1000 µM.

Turning to `COC(=O)N1c2ccc3c(nc(C(C)C(=O)N4CCCC4)n3C3CCCC(C(=O)O)C3)c2CC[C@@H]1C` (stereo partly shown) [Example 732], the IC50 lay in the range of 1 to 1000 µM.

Turning to `COC(=O)N1c2ccc3c(nc(Cn4cc(C5CC5)cn4)n3[C@H]3CC[C@H](C(=O)O)CC3)c2CC[C@@H]1C` [Example 733], the IC50 was in the range of 1 to 1000 µM.

Turning to `COC(=O)N1c2ccc3c(nc(Cn4cc(Cl)cn4)n3[C@H]3CC[C@H](C(=O)O)CC3)c2CC[C@@H]1C` [Example 737], the IC50 fell in the range of 1 to 1000 µM.

As to `COC(=O)N1c2ccc3c(nc(Cc4cnc(C)cn4)n3[C@@H]3CCC[C@@H](C(=O)O)C3)c2CC[C@@H]1C` [Example 738], the IC50 is 1 to 1000 µM.

Take `COC(=O)N1c2ccc3c(nc(Cc4ccc(OC)c(OC)c4)n3[C@H]3CC[C@H](C(=O)O)CC3)c2CC[C@@H]1C` [Example 740]: the IC50 lay within 1 to 1000 µM.

Turning to `COC(=O)N1c2ccc3c(nc(COC4CCOCC4)n3[C@@H]3CCC[C@@H](C(=O)O)C3)c2CC[C@@H]1C` [Example 741], the IC50 was 1 to 1000 µM.

`COC(=O)N1c2ccc3c(nc(C(C)Cc4cnn(C)c4)n3C3CCCC(C(=O)O)C3)c2CC[C@@H]1C` (stereo partly shown) [Example 742]: the IC50 lay within 1 to 1000 µM.

For the molecule `COC(=O)N1c2ccc3c(nc(CCc4ccccc4C(=O)O)n3C3CCOCC3)c2CC[C@@H]1C` [Example 743], the IC50 lay in the range of 1 to 1000 µM.

`COC(=O)N1c2ccc3c(nc(Cc4ccc(C#N)cc4)n3[C@H]3CC[C@H](C(=O)O)CC3)c2CC[C@@H]1C` [Example 744]: the IC50 lay within 1 to 1000 µM.

As to `COC(=O)N1c2ccc3c(nc(Cc4cnc(Cl)c(C)n4)n3[C@@H]3CCC[C@@H](C(=O)O)C3)c2CC[C@@H]1C` [Example 745], the IC50 lay in the range of 1 to 1000 µM.

Consider `COC(=O)N1c2ccc3c(nc(C(C)(O)c4ccccn4)n3C3CCCC(C(=O)O)C3)c2CC[C@@H]1C` (stereo partly shown) [Example 749], for which the IC50 lay in the range of 1 to 1000 µM.

With `COC(=O)N1c2ccc3c(nc(CC(C(=O)O)c4ccc(F)c(F)c4)n3C3CCCC3)c2CC[C@@H]1C` (stereo partly shown) [Example 751], the IC50 was 1 to 1000 µM.

As to `COC(=O)N1c2ccc3c(nc(COC4CCCC4)n3[C@H]3CC[C@H](C(=O)O)CC3)c2CC[C@@H]1C` [Example 752], the IC50 is 1 to 1000 µM.

Turning to `COC(=O)N1c2ccc3c(nc(C4(Cn5cccn5)CC4)n3[C@@H]3CCC[C@@H](C(=O)O)C3)c2CC[C@@H]1C` [Example 753], the IC50 fell in the range of 1 to 1000 µM.

In the case of `COC(=O)N1c2ccc3c(nc(C(C)Cn4cccn4)n3C3CCS(=O)(=O)CC3)c2CC[C@@H]1C` (stereo partly shown) [Example 754], the IC50 lay within 1 to 1000 µM.

As to `COC(=O)N1c2ccc3c(nc(CC(C(=O)O)c4ccc(C(C)C)cc4)n3C3CCCOC3)c2CC[C@@H]1C` (stereo partly shown) [Example 756], the IC50 lay in the range of 1 to 1000 µM.

Turning to `COC(=O)N1c2ccc3c(nc(CC(C(=O)O)c4ccccc4)n3C3CCCC(OC)C3)c2CC[C@@H]1C` (stereo partly shown) [Example 757], the IC50 was in the range of 1 to 1000 µM.

`COC(=O)N1c2ccc3c(nc(CN4CCc5ccccc5C4=O)n3[C@@H]3CCC[C@@H](C(=O)O)C3)c2CC[C@@H]1C` [Example 758]: the IC50 is 1 to 1000 µM.

As for `COC(=O)N1c2ccc3c(nc(COC4CCOCC4)n3[C@H]3CC[C@H](C(=O)O)CC3)c2CC[C@@H]1C` [Example 759], the IC50 was 1 to 1000 µM.

`COC(=O)N1c2ccc3c(nc(C(O)C4CCCC4)n3C3CCCC(C(=O)O)C3)c2CC[C@@H]1C` (stereo partly shown) [Example 762]: the IC50 fell in the range of 1 to 1000 µM.

Take `COC(=O)N1c2ccc3c(nc(N(C)c4ccc(C#N)cc4)n3[C@H]3CC[C@H](C(=O)O)CC3)c2CC[C@@H]1C` [Example 769]: the IC50 lay in the range of 1 to 1000 µM.

For the molecule `COC(=O)N1c2ccc3c(nc(C(C)Cn4cccn4)n3C3CCS(=O)(=O)C3)c2CC[C@@H]1C` (stereo partly shown) [Example 771], the IC50 lay within 1 to 1000 µM.

Regarding `COC(=O)N1c2ccc3c(nc(C(C)Cn4cccn4)n3C3CCS(=O)(=O)C3)c2CC[C@@H]1C` (stereo partly shown) [Example 772], the IC50 fell in the range of 1 to 1000 µM.

For the origin of these results see patent US11292791B2 (priority 2017, dated 2022).
